Assay results taken from article PMC11845477, “Exploring the principles behind antibiotics with limited resistance” (Nature Communications, 2025).
Where a SMILES comes first, the peptide text is derived from it. Bridges are numbered along the chain shown (N, C = ends). [ ]: non-standard residue; d: D form. The star is where a group is joined. X2 = CC[C@H](C)CCCCC(=O)*; Dab = NCC[C@H](N)C(=O)O

What was measured:
[1] = system: E. coli ATCC 25922 (SEN) and E. coli NCTC13846 (MDR); test: Adaptive laboratory evolution (ALE), relative MIC of evolved lines; assay type: cell-based, Escherichia coli
In short: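 Ten parallel populations per antibiotic–ancestor pair were evolved in MHB at 37 °C, starting near 50% growth-inhibiting drug. Every 72 h they were passaged into 0.5–2.5× increasing concentrations, keeping the highest-drug well with OD600 > 0.2.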

E. coli BW25113-ΔacrB = test: AcrAB-TolC efflux deficiency screen, relative MIC; assay type: cell-based, Escherichia coli; conditions: ΔacrB vs wild-type
In short: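 Broth microdilution in MHB (supplemented MS for SCH79797), ten-step antibiotic dilutions, 5 × 10^5 cells/mL, 18 h at 37 °C with shaking; MIC is lowest concentration giving background-corrected OD600 < 0.05. Relative MIC as log2 ratio: ΔacrB vs wild-type; pUCacrAB vs empty pUC118 (plasmid strains under 100 µg/mL ampicillin). Mean of 3 biological replicates.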

[2] = EC-SEN (Escherichia coli ATCC 25922), evolved line 3
[3] = EC-SEN (Escherichia coli ATCC 25922), evolved line 4
[4] = EC-SEN (Escherichia coli ATCC 25922), evolved line 5
[5] = EC-SEN (Escherichia coli ATCC 25922), evolved line 6
[6] = EC-SEN (Escherichia coli ATCC 25922), evolved line 7
[7] = EC-SEN (Escherichia coli ATCC 25922), evolved line 8
[8] = EC-SEN (Escherichia coli ATCC 25922), evolved line 9
[9] = EC-SEN (Escherichia coli ATCC 25922), evolved line 10
[10] = EC-SEN, Escherichia coli ATCC 25922, evolved line 1
[11] = EC-SEN, Escherichia coli ATCC 25922, evolved line 2

CN(C)c1cc(CNCC(C)(C)C)c(O)c2c1C[C@H]1C[C@H]3[C@H](N(C)C)C(O)=C(C(N)=O)C(=O)[C@@]3(O)C(O)=C1C2=O [Omadacycline]
-2.34: Relative MIC (log2) (E. coli BW25113-ΔacrB; replicate 1) | Relative MIC (log2) (E. coli BW25113-ΔacrB; replicate 2) | Relative MIC (log2) (E. coli BW25113-ΔacrB; replicate 3)
2: Relative MIC [1, 6] | Relative MIC ([1]; EC-SEN ATCC 25922, evolved line 7, evolved line vs ancestor)
0.6021: Relative MIC (log10) ([1]; EC-SEN (Escherichia coli ATCC 25922), evolved line 6 adapted to the named antibiotic)
8: Relative MIC [1, 3] | Relative MIC [1, 4] | Relative MIC [1, 7] | Relative MIC [1, 8] | Relative MIC ([1]; EC-SEN ATCC 25922, evolved line 1, evolved line vs ancestor) | Relative MIC ([1]; EC-SEN ATCC 25922, evolved line 2, evolved line vs ancestor) | Relative MIC ([1]; EC-SEN ATCC 25922, evolved line 4, evolved line vs ancestor) | Relative MIC ([1]; EC-SEN ATCC 25922, evolved line 5, evolved line vs ancestor) | Relative MIC ([1]; EC-SEN ATCC 25922, evolved line 8, evolved line vs ancestor) | Relative MIC ([1]; EC-SEN ATCC 25922, evolved line 9, evolved line vs ancestor) | Relative MIC [1, 10] | Relative MIC [1, 11]
0.9031: Relative MIC (log10) ([1]; EC-SEN (Escherichia coli ATCC 25922), evolved line 1 adapted to the named antibiotic) | Relative MIC (log10) ([1]; EC-SEN (Escherichia coli ATCC 25922), evolved line 2 adapted to the named antibiotic) | Relative MIC (log10) ([1]; EC-SEN (Escherichia coli ATCC 25922), evolved line 5 adapted to the named antibiotic) | Relative MIC (log10) ([1]; EC-SEN (Escherichia coli ATCC 25922), evolved line 9 adapted to the named antibiotic)
4: Relative MIC [1, 2] | Relative MIC [1, 5] | Relative MIC [1, 9] | Relative MIC ([1]; EC-SEN ATCC 25922, evolved line 3, evolved line vs ancestor) | Relative MIC ([1]; EC-SEN ATCC 25922, evolved line 6, evolved line vs ancestor) | Relative MIC ([1]; EC-SEN ATCC 25922, evolved line 10, evolved line vs ancestor)

CC[C@H](C)CCCCC(=O)N[C@@H](CCN)C(=O)N[C@H](C(=O)N[C@@H](CCN)C(=O)N[C@H]1CCNC(=O)[C@H]([C@@H](C)O)NC(=O)[C@H](CCN)NC(=O)[C@H](CCN)NC(=O)[C@H](CC(C)C)NC(=O)[C@@H](Cc2ccccc2)NC(=O)[C@H](CCN)NC1=O)[C@@H](C)O [Polymyxin B] (X2-[Dab]T[Dab][Dab][Dab][dF]L[Dab][Dab]T; lactam 4-C (inferred); N-terminus assumed)
1.505 log10: Relative MIC (log10) ([1]; EC-MDR (Escherichia coli NCTC 13846), evolved line 2) | Relative MIC (log10) ([1]; EC-MDR, Escherichia coli NCTC 13846, evolved line 1)
0: Relative MIC (log2) (E. coli BW25113-ΔacrB; replicate 1) | Relative MIC (log2) (E. coli BW25113-ΔacrB; replicate 2) | Relative MIC (log2) (E. coli BW25113-ΔacrB; replicate 3)
1.204 log10: Relative MIC (log10) ([1]; EC-MDR (Escherichia coli NCTC 13846), evolved line 5) | Relative MIC (log10) ([1]; EC-MDR (Escherichia coli NCTC 13846), evolved line 10) | Relative MIC (log10) ([1]; EC-MDR, Escherichia coli NCTC 13846, evolved line 6)
2.107 log10: Relative MIC (log10) [1, 3] | Relative MIC (log10) [1, 5] | Relative MIC (log10) [1, 7] | Relative MIC (log10) [1, 9] | Relative MIC (log10) [1, 11]

CC(C)c1ccc(Cn2ccc3c4c(N)nc(NC5CC5)nc4ccc32)cc1 [SCH79797]
0.6021 log10: Relative MIC (log10) [1, 2] | Relative MIC (log10) [1, 3] | Relative MIC (log10) [1, 4] | Relative MIC (log10) [1, 6] | Relative MIC (log10) [1, 9]
4: Relative MIC ([1]; ALE, Escherichia coli ATCC 25922 (EC-SEN), evolved line 1) | Relative MIC ([1]; ALE, Escherichia coli ATCC 25922 (EC-SEN), evolved line 2) | Relative MIC ([1]; ALE, Escherichia coli ATCC 25922 (EC-SEN), evolved line 3) | Relative MIC ([1]; ALE, Escherichia coli ATCC 25922 (EC-SEN), evolved line 4) | Relative MIC ([1]; ALE, Escherichia coli ATCC 25922 (EC-SEN), evolved line 5) | Relative MIC ([1]; ALE, Escherichia coli ATCC 25922 (EC-SEN), evolved line 7) | Relative MIC ([1]; ALE, Escherichia coli ATCC 25922 (EC-SEN), evolved line 10) | Relative MIC ([1]; EC-SEN (E. coli ATCC 25922), evolved line 1 vs ancestor) | Relative MIC ([1]; EC-SEN (E. coli ATCC 25922), evolved line 2 vs ancestor) | Relative MIC ([1]; EC-SEN (E. coli ATCC 25922), evolved line 3 vs ancestor) | Relative MIC ([1]; EC-SEN (E. coli ATCC 25922), evolved line 4 vs ancestor) | Relative MIC ([1]; EC-SEN (E. coli ATCC 25922), evolved line 5 vs ancestor) | Relative MIC ([1]; EC-SEN (E. coli ATCC 25922), evolved line 7 vs ancestor) | Relative MIC ([1]; EC-SEN (E. coli ATCC 25922), evolved line 10 vs ancestor) | Relative MIC [1, 2] | Relative MIC [1, 3] | Relative MIC [1, 4] | Relative MIC [1, 6] | Relative MIC [1, 9] | Relative MIC [1, 10] | Relative MIC [1, 11] | Relative MIC ([1]; Escherichia coli ATCC 25922 (EC-SEN), evolved line 1) | Relative MIC ([1]; Escherichia coli ATCC 25922 (EC-SEN), evolved line 2) | Relative MIC ([1]; Escherichia coli ATCC 25922 (EC-SEN), evolved line 3) | Relative MIC ([1]; Escherichia coli ATCC 25922 (EC-SEN), evolved line 4) | Relative MIC ([1]; Escherichia coli ATCC 25922 (EC-SEN), evolved line 5) | Relative MIC ([1]; Escherichia coli ATCC 25922 (EC-SEN), evolved line 7) | Relative MIC ([1]; Escherichia coli ATCC 25922 (EC-SEN), evolved line 10)
2: Relative MIC ([1]; ALE, Escherichia coli ATCC 25922 (EC-SEN), evolved line 8) | Relative MIC ([1]; ALE, Escherichia coli ATCC 25922 (EC-SEN), evolved line 9) | Relative MIC ([1]; EC-SEN (E. coli ATCC 25922), evolved line 8 vs ancestor) | Relative MIC ([1]; EC-SEN (E. coli ATCC 25922), evolved line 9 vs ancestor) | Relative MIC [1, 7] | Relative MIC [1, 8] | Relative MIC ([1]; Escherichia coli ATCC 25922 (EC-SEN), evolved line 8) | Relative MIC ([1]; Escherichia coli ATCC 25922 (EC-SEN), evolved line 9)
8 µg/mL: MIC of evolved line ([1]; EC-SEN (E. coli ATCC 25922), evolved line 8 of the given antibiotic) | MIC of evolved line ([1]; EC-SEN (E. coli ATCC 25922), evolved line 9 of the given antibiotic)
16 µg/mL: MIC of evolved line ([1]; EC-SEN (E. coli ATCC 25922), evolved line 1 of the given antibiotic) | MIC of evolved line ([1]; EC-SEN (E. coli ATCC 25922), evolved line 2 of the given antibiotic) | MIC of evolved line ([1]; EC-SEN (E. coli ATCC 25922), evolved line 3 of the given antibiotic) | MIC of evolved line ([1]; EC-SEN (E. coli ATCC 25922), evolved line 4 of the given antibiotic) | MIC of evolved line ([1]; EC-SEN (E. coli ATCC 25922), evolved line 5 of the given antibiotic) | MIC of evolved line ([1]; EC-SEN (E. coli ATCC 25922), evolved line 7 of the given antibiotic) | MIC of evolved line ([1]; EC-SEN (E. coli ATCC 25922), evolved line 10 of the given antibiotic)
-1: Relative MIC (log2) (E. coli BW25113-ΔacrB; replicate 1) | Relative MIC (log2) (E. coli BW25113-ΔacrB; replicate 2) | Relative MIC (log2) (E. coli BW25113-ΔacrB; replicate 3)
